Source: PubChem BioAssay AID1845215 (Molecular Pharmacology Branch, DTP, NCI, 2023)

System: SW 1271 complex tumor spheroid viability
Assay: Anticancer human tumor SW 1271 cell line growth inhibition;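 further: spheroids exposed to agents for seven days before readout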;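 on viability, T/C: percent of DMSO vehicle control luminescence so 100% = vehicle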
Settings: for IC50: curve of first compound; for viability, T/C: stronger effect = lower value
Summary of the method: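 Complex spheroids of malignant cells with endothelial cells and mesenchymal stem cells; agents alone or combined, from near clinical Cmax (or 10 microM if unknown) down in half-log steps, 0.25% DMSO final.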

[1] = second compound 30 pM, first compound 0.0316 µM
[2] = second compound 30 pM, first compound 0.1 µM
[3] = second compound 30 pM, first compound 0.316 µM
[4] = second compound 30 pM, first compound 1 µM
[5] = second compound 30 pM, first compound 3.16 µM
[6] = second compound 30 pM, first compound 10 µM
[7] = second compound 94.9 pM, first compound 0.0316 µM
[8] = second compound 94.9 pM, first compound 0.1 µM
[9] = second compound 94.9 pM, first compound 0.316 µM
[10] = second compound 94.9 pM, first compound 1 µM
[11] = second compound 94.9 pM, first compound 3.16 µM
[12] = second compound 94.9 pM, first compound 10 µM
[13] = second compound 0.0003 µM, first compound 0.0316 µM
[14] = second compound 0.0003 µM, first compound 0.1 µM
[15] = second compound 0.0003 µM, first compound 0.316 µM
[16] = second compound 0.0003 µM, first compound 1 µM
[17] = second compound 0.0003 µM, first compound 3.16 µM
[18] = second compound 0.0003 µM, first compound 10 µM
[19] = second compound 0.000949 µM, first compound 0.0316 µM
[20] = second compound 0.000949 µM, first compound 0.1 µM
[21] = second compound 0.000949 µM, first compound 0.316 µM
[22] = second compound 0.000949 µM, first compound 1 µM
[23] = second compound 0.000949 µM, first compound 3.16 µM
[24] = second compound 0.000949 µM, first compound 10 µM
[25] = second compound 0.003 µM, first compound 0.0316 µM
[26] = second compound 0.003 µM, first compound 0.1 µM
[27] = second compound 0.003 µM, first compound 0.316 µM
[28] = second compound 0.003 µM, first compound 1 µM
[29] = second compound 0.003 µM, first compound 3.16 µM
[30] = second compound 0.003 µM, first compound 10 µM

Structure (SMILES) | IC50 (second compound 30 pM) [nM] | IC50 (second compound 94.9 pM) [nM] | IC50 (second compound 0.0003 µM) [nM] | IC50 (second compound 0.000949 µM) [nM] | IC50 (second compound 0.003 µM) [nM] | viability, T/C [1] [%] | viability, T/C [2] [%] | viability, T/C [3] [%] | viability, T/C [4] [%] | viability, T/C [5] [%] | viability, T/C [6] [%] | viability, T/C [7] [%] | viability, T/C [8] [%] | viability, T/C [9] [%] | viability, T/C [10] [%] | viability, T/C [11] [%] | viability, T/C [12] [%] | viability, T/C [13] [%] | viability, T/C [14] [%] | viability, T/C [15] [%] | further results
CC1COCCN1c1cc(-c2ccnn2C)c2ccnc(-c3ccn[nH]3)c2n1 (stereo not given) + COc1cc2c(cc1O)CCNC21CSC2c3c(OC(C)=O)c(C)c4c(c3C(COC1=O)N1C(O)C3Cc5cc(C)c(OC)c(O)c5C(C21)N3C)OCO4 | < 31.6 | < 31.6 | < 31.6 | < 31.6 | < 31.6 | 42.9 | 12.5 | 7.53 | 3.2 | 2.78 | 2.04 | 10.9 | 6.89 | 5.14 | 3.73 | 1.95 | 2.12 | 10.8 | 6.88 | 5.11 | viability, T/C [16]: 2.88%; viability, T/C [17]: 1.51%; viability, T/C [18]: 1.29%; viability, T/C [19]: 3%; viability, T/C [20]: 1.96%; viability, T/C [21]: 1.34%; viability, T/C [22]: 1.09%; viability, T/C [23]: 0.1%; viability, T/C [24]: 0.3%; viability, T/C [25]: 0.1%; viability, T/C [26]: 0.09%; viability, T/C [27]: 0.1%; viability, T/C [28]: 0.08%; viability, T/C [29]: 0.09%; viability, T/C [30]: 0.15%
COc1cc(C)[nH]c(=O)c1CN1CCc2c(Cl)cc(C(OC)C3COC3)c(Cl)c2C1=O (stereo not given) + COc1cc2c(cc1O)CCNC21CSC2c3c(OC(C)=O)c(C)c4c(c3C(COC1=O)N1C(O)C3Cc5cc(C)c(OC)c(O)c5C(C21)N3C)OCO4 | > 10000 | 5220 | < 31.6 | < 31.6 | < 31.6 | 101 | 96 | 96.4 | 89.6 | 86.8 | 77.1 | 65.9 | 75.3 | 67.4 | 64.4 | 57 | 40.9 | 33.3 | 37 | 34.2 | viability, T/C [16]: 38.3%; viability, T/C [17]: 36.6%; viability, T/C [18]: 37.1%; viability, T/C [19]: 5.93%; viability, T/C [20]: 5.35%; viability, T/C [21]: 4.91%; viability, T/C [22]: 3.61%; viability, T/C [23]: 7.88%; viability, T/C [24]: 2.67%; viability, T/C [25]: 0.11%; viability, T/C [26]: 0.12%; viability, T/C [27]: 0.11%; viability, T/C [28]: 0.11%; viability, T/C [29]: 0.11%; viability, T/C [30]: 0.16%
COc1ccc([C@@H](O)c2cc(-c3ncnc4cc(N5CCOCC5)ccc34)c(F)cc2Cl)nn1 + COc1cc2c(cc1O)CCNC21CSC2c3c(OC(C)=O)c(C)c4c(c3C(COC1=O)N1C(O)C3Cc5cc(C)c(OC)c(O)c5C(C21)N3C)OCO4 | 1080 | 168 | < 31.6 | < 31.6 | < 31.6 | 84.9 | 86.9 | 77.4 | 51.1 | 21.7 | 6.57 | 71.1 | 51.8 | 39.6 | 33.5 | 25.9 | 4.84 | 35.7 | 33.3 | 31.1 | viability, T/C [16]: 17.6%; viability, T/C [17]: 1.97%; viability, T/C [18]: 0.12%; viability, T/C [19]: 2.95%; viability, T/C [20]: 2.6%; viability, T/C [21]: 1.24%; viability, T/C [22]: 0.04%; viability, T/C [23]: 0.02%; viability, T/C [24]: 0.1%; viability, T/C [25]: 0.1%; viability, T/C [26]: 0.08%; viability, T/C [27]: 0.08%; viability, T/C [28]: 0.08%; viability, T/C [29]: 0.09%; viability, T/C [30]: 0.15%
Cc1cc(C)c(CNC(=O)c2cc(-c3ccc(CN4CCOCC4)cc3)cc3c2cnn3C2CCCC2)c(=O)[nH]1 + COc1cc2c(cc1O)CCNC21CSC2c3c(OC(C)=O)c(C)c4c(c3C(COC1=O)N1C(O)C3Cc5cc(C)c(OC)c(O)c5C(C21)N3C)OCO4 | > 10000 | 987 | < 31.6 | < 31.6 | < 31.6 | 86.2 | 92.9 | 90.4 | 87.4 | 84.5 | 66.2 | 59.6 | 63.3 | 66.6 | 49.8 | 40.7 | 34.4 | 32.9 | 35.7 | 34.1 | viability, T/C [16]: 30.3%; viability, T/C [17]: 29.3%; viability, T/C [18]: 24%; viability, T/C [19]: 2.96%; viability, T/C [20]: 14.8%; viability, T/C [21]: 2.88%; viability, T/C [22]: 3.26%; viability, T/C [23]: 1.94%; viability, T/C [24]: 1.96%; viability, T/C [25]: 0.23%; viability, T/C [26]: 0.24%; viability, T/C [27]: 0.28%; viability, T/C [28]: 0.25%; viability, T/C [29]: 0.21%; viability, T/C [30]: 0.29%
[2H]c1nc(C)nc([2H])c1-c1cc(NC[C@@H](C)c2cccc3c(C(=O)NC)ccnc23)ncn1 + COc1cc2c(cc1O)CCNC21CSC2c3c(OC(C)=O)c(C)c4c(c3C(COC1=O)N1C(O)C3Cc5cc(C)c(OC)c(O)c5C(C21)N3C)OCO4 | > 10000 | > 10000 | < 31.6 | < 31.6 | < 31.6 | 104 | 93.9 | 98.7 | 96.4 | 93.4 | 90.1 | 60.4 | 68.6 | 75.6 | 69.9 | 63.4 | 51.7 | 33.1 | 35.1 | 33.4 | viability, T/C [16]: 30.1%; viability, T/C [17]: 34.2%; viability, T/C [18]: 31.6%; viability, T/C [19]: 10.5%; viability, T/C [20]: 4.86%; viability, T/C [21]: 4.58%; viability, T/C [22]: 3.72%; viability, T/C [23]: 2.73%; viability, T/C [24]: 1.89%; viability, T/C [25]: 0.1%; viability, T/C [26]: 0.09%; viability, T/C [27]: 0.1%; viability, T/C [28]: 0.09%; viability, T/C [29]: 0.09%; viability, T/C [30]: 0.17%
